Data published in paper PMC4308718 (Nature Communications, 2015).

Legend:
AtPHT4;4 = target: T1, AtPHT4;4 (Arabidopsis thaliana, UniProt Q8GX78); assay: inhibition of […]-ascorbate uptake into proteoliposomes, […] min; assay type: biochemical; settings: 1 and 10 μM inhibitor; 100 μM ascorbate; 2 μM valinomycin; pH 7.0; 27 °C
T1 construct: gene PHT4; cDNA from ATG; His-tag and soluble alpha-helix protein (beta) at both ends, beta-pET-28a(+)-beta; E. coli C43(DE3); purified by Ni-NTA; proteoliposomes
T1 sequence (Q8GX78 1-541): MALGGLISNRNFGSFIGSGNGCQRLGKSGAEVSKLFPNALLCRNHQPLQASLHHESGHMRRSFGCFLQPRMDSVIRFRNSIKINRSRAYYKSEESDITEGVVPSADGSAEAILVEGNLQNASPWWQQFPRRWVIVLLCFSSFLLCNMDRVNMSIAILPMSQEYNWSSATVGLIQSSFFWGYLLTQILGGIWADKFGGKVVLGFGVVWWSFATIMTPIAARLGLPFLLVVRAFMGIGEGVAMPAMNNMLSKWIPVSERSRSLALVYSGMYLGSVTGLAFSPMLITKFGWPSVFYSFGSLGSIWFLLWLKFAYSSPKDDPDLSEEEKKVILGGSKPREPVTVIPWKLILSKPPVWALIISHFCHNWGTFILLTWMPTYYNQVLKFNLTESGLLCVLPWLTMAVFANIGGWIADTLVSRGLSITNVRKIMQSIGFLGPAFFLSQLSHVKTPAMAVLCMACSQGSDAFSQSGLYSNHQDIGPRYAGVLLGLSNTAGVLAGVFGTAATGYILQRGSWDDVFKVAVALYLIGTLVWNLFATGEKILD

AtPHT4;6 = target: T2, AtPHT4;6 (Arabidopsis thaliana, UniProt Q9FKV1); settings: labelled compound (32P); 100 μM phosphate; 0.1 M sodium acetate; pH 7.0
T2 construct: gene ANTR5

AtPHT4;5 = target: T3, AtPHT4;5 (Arabidopsis thaliana, UniProt Q3E9A0); settings: labelled compound (32P); 100 μM phosphate; 0.1 M sodium acetate; pH 7.0
T3 construct: gene ANTR6

AtPHT4;3 = target: T4, AtPHT4;3 (Arabidopsis thaliana, UniProt Q66GI9); settings: labelled compound (32P); 100 μM phosphate; 0.1 M sodium acetate; pH 7.0
T4 construct: gene ANTR4

purified protein = substrate: O=C1O[C@H]([C@@H](O)CO)C(O)=C1O; assay: purified protein; settings: labelled compound (14C), valinomycin-induced inside-positive membrane potential, 4 mM KCl, pH 7.0, 27 °C

T3 sequence (Q3E9A0 whole entry): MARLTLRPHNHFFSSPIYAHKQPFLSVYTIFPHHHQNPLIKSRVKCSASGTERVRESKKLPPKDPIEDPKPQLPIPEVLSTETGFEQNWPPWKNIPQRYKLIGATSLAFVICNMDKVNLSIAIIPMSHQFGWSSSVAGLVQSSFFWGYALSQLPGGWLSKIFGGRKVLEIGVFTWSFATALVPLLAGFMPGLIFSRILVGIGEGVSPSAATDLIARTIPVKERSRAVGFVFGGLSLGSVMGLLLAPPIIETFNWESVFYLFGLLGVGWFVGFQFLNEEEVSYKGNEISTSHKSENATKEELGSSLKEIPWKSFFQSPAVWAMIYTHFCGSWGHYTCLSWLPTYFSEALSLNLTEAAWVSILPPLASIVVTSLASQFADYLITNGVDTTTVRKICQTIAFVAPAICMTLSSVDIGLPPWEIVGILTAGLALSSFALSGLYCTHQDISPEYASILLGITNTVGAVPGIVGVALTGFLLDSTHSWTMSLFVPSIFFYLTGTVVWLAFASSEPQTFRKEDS
T4 sequence (Q66GI9 whole entry): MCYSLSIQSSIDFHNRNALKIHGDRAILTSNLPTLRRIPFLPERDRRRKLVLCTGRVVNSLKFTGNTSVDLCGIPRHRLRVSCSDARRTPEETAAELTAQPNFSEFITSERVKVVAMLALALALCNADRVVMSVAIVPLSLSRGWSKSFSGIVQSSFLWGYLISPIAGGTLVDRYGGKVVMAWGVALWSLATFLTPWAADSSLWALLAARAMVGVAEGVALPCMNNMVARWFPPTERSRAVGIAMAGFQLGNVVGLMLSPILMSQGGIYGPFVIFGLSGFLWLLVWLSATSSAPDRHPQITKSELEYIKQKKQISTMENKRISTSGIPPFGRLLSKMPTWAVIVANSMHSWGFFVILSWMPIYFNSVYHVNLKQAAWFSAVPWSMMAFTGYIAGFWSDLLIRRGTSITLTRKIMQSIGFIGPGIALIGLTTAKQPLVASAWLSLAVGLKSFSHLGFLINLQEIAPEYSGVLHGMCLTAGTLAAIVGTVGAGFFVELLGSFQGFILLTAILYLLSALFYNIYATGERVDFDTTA
T2 sequence (Q9FKV1 whole entry): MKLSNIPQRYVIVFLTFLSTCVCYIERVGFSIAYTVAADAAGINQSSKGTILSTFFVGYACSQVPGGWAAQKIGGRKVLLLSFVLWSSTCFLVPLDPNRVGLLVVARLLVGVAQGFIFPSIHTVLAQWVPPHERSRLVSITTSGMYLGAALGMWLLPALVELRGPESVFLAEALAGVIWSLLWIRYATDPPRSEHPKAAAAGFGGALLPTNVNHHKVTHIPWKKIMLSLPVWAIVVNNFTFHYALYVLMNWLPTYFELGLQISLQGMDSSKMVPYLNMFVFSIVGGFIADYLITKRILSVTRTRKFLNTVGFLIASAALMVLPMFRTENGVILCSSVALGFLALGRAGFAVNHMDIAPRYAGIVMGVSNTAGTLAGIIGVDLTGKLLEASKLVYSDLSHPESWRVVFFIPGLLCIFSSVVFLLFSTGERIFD

Cc1cc(-c2ccc(/N=N/c3ccc4c(S(=O)(=O)O)cc(S(=O)(=O)O)c(N)c4c3O)c(C)c2)ccc1/N=N/c1ccc2c(S(=O)(=O)O)cc(S(=O)(=O)O)c(N)c2c1O [Evans blue]
inhibition of 14C-ascorbate uptake into proteoliposomes, 1 min (AtPHT4;4): typical inhibitors of mammalian SLC17 family transporters, inhibited ascorbate uptake

O=P(O)(O)O [inorganic phosphate]
Na+-driven 32P-phosphate uptake into proteoliposomes, 2 min (AtPHT4;6): Na^+/Pi transport activity was detected in proteoliposomes containing all of these transporters
Na+-driven 32P-phosphate uptake into proteoliposomes, 2 min (AtPHT4;5): Na^+/Pi transport activity was detected in proteoliposomes containing all of these transporters
Na+-driven 32P-phosphate uptake into proteoliposomes, 2 min (AtPHT4;3): Na^+/Pi transport activity was detected in proteoliposomes containing all of these transporters

O=S(=O)(O)c1cc(N=C=S)ccc1/C=C/c1ccc(N=C=S)cc1S(=O)(=O)O [4,4′-diisothiocyano-2,2′-stilbenedisulphonic acid]
inhibition of 14C-ascorbate uptake into proteoliposomes, 1 min (AtPHT4;4): typical inhibitors of mammalian SLC17 family transporters, inhibited ascorbate uptake

B1: AtPHT4;4 (Arabidopsis thaliana) (protein)
chain: MALGGLISNRNFGSFIGSGNGCQRLGKSGAEVSKLFPNALLCRNHQPLQASLHHESGHMRRSFGCFLQPRMDSVIRFRNSIKINRSRAYYKSEESDITEGVVPSADGSAEAILVEGNLQNASPWWQQFPRRWVIVLLCFSSFLLCNMDRVNMSIAILPMSQEYNWSSATVGLIQSSFFWGYLLTQILGGIWADKFGGKVVLGFGVVWWSFATIMTPIAARLGLPFLLVVRAFMGIGEGVAMPAMNNMLSKWIPVSERSRSLALVYSGMYLGSVTGLAFSPMLITKFGWPSVFYSFGSLGSIWFLLWLKFAYSSPKDDPDLSEEEKKVILGGSKPREPVTVIPWKLILSKPPVWALIISHFCHNWGTFILLTWMPTYYNQVLKFNLTESGLLCVLPWLTMAVFANIGGWIADTLVSRGLSITNVRKIMQSIGFLGPAFFLSQLSHVKTPAMAVLCMACSQGSDAFSQSGLYSNHQDIGPRYAGVLLGLSNTAGVLAGVFGTAATGYILQRGSWDDVFKVAVALYLIGTLVWNLFATGEKILD
Km (purified protein): 1200 µM
